Test results published in the NIST ThermoML archive (doi:10.1021/je050294+).
Numbers after ± are expanded uncertainties.

Conditions: 101.33 kPa, Liquid; for speed of sound: Linear variable-path acoustic interferometer

mass density (283.15 K)	speed of sound (283.15 K)	mass density (298.15 K)	speed of sound (298.15 K)	mass density (313.15 K)	speed of sound (313.15 K)	SMILES
817.48 ± 0.23 kg/m3	1292.2 ± 1.4 m/s	806.17 ± 0.23 kg/m3	1240.7 ± 1.4 m/s	794.51 ± 0.24 kg/m3	1191.4 ± 1.4 m/s	CCCCO [butan-1-ol]
878.97 ± 0.55 kg/m3	1355.9 ± 1.8 m/s	866.99 ± 0.55 kg/m3	1295 ± 1.8 m/s	854.89 ± 0.56 kg/m3	1237.4 ± 1.7 m/s	C=C1CCC2CC1C2(C)C (stereo not drawn) [β-pinene]
815.11 ± 0.59 kg/m3	1266.6 ± 1.7 m/s	803 ± 0.6 kg/m3	1212.4 ± 1.7 m/s	790.06 ± 0.61 kg/m3	1158 ± 1.7 m/s	CCC(C)O (stereo not drawn) [butan-2-ol]
